Test results: patent US10526283B2, “Prodrugs of dithiol mucolytic agents” (PARION SCIENCES, INC., priority 2015, dated 2020)
Structures can show the parent of a compound that is named as a salt. One block for each molecule: values may come before it.

Legend:
Muc5B [1] = biological target: T1, Muc5B (Homo sapiens, UniProt Q9HC84); assay: MUC5B reduction in human mucus samples; format: biochemical
T1 construct: 68, 70a/b and 76 all reduce MUC5B in human mucus samples; from tissue; host or cells: human mucus samples
Text: (§1) This assay tests whether mucin has been reduced by mucolytic compounds. Various mucin-containing substrates (e.g. saliva, primary human bronchial epithelial (HBEs) cell mucus (either on cultures or harvested), and sputum) treated with our dithiol mucolytic compounds are quenched upon completion of the treatment period with a 10-fold excess of N-ethylmaleimide in order to alkylate any remaining active compound and to prevent further mucin reduction. A 10× concentrated sample loading buffer is diluted into each sample (lx TAE/5% glycerol/0.1% SDS/Bromophenol Blue). Samples (50 μg) were analyzed by electrophoresis on 0.9% agarose gels using a buffer system consisting of 1×TAE/0.1% SDS. The agarose gel was soaked for 15 min in 4×SSC (0.6 M NaCl, 60 mM Tri-sodium citrate dehydrate) containing 10 mM DTT before transferring the samples from the gel onto a nitrocellulose membrane by vacuum blotter. Unreduced and reduced Muc5B and Muc5AC were visualized on a LiCor Odyssey imaging detection system using a polyclonal antibody directed towards Muc5B.

human aminopeptidase = assay: DTNB assay after incubation with human aminopeptidase; format: biochemical; details: over an hour incubation, two concentrations of human aminopeptidase
[2] = tested on: human bronchial epithelial cells (HBE); assay: HBE ADME assay; format: in vitro ADME; details: four hours post-dose
Description: This assay was designed to determine if our dithiol prodrug compounds would be retained on the apical surface of human bronchial epithelial cells (HBE) (i.e. they are predominately cell impermeant) and if the compounds could be metabolized to their active forms (i.e. are there relevant hydrolytic enzymes present). Towards this goal, 15 μL of 10 mM dithiol prodrug compound was added to the apical surface of HBEs. At indicated time points, mucus from the apical surface was isolated with a PBS wash that contained 10-fold excess of N-ethylmaleimide in order to alkylate any remaining active compound and to prevent further mucin reduction. In addition the HBE cells and basolateral media were isolated at each time point. The form (e.g., prodrug, active metabolite, oxidized metabolite) and location (apical, cellular, basolateral media) of each compound was analyzed by LC-MS.

[3] = Pro-drug DTNB assay without enzyme (reducing activity); format: biochemical; details: for reducing activity in DTNB assay without enzyme: no esterase added
Text: (§2) This assay was designed to determine whether prodrug caps added on to our dithiol mucolytic compounds can be cleaved from the molecule. If so, the outcome would be an “active” compound that is able to reduce the S—S bond in DTNB. When cleaved the resulting compound, NTB (2-nitro-5-thiobenzoate), is a colored product that can be measured spectrophotometrically at an absorbance of 412 nm (Abs412). Using the molar extinction coefficient of NTB and measured maximum Abs412, the molar amount of DTNB that reacted with our mucolytic agents can be calculated. Dithiol mucolytic compounds react at a 2:1 stoichiometric ratio with DTNB (i.e. 2 molecules of NTB are produced for every one molecule of a dithiol compound that is oxidized). Dithiol prodrugs were mixed at a final concentration of 22.5 μM with excess DTNB (100 μM final) in 1 mL 50 mM Tris-HCl buffer (pH 7.5) and maximum Abs412 was measured. In the absence of a purified hydrolytic enzyme (e.g. porcine liver esterase; Sigma), the amount of DTNB cleavage observed is an indicator for stability of the cap on the prodrug compound (i.e. if the prodrug remains intact in solution the Abs412=0). Next, 5 uL of esterase (bought as an ammonium sulfate suspension that is subsequently centrifuged to isolate the esterase and then dissolved in reaction buffer prior to assaying) is combined with excess DTNB (100 μM final) and 22.5 μM pro-drug in 1 mL 50 mM Tris-HCl buffer (pH 7.5). Cleavage of the prodrug cap can be visualized in real time via DTNB cleavage at Abs412 by the esterase-liberated dithiol molecule.

esterase = assay: Pro-drug DTNB assay after incubation with esterase; format: biochemical, porcine; details: for dependence of activation on amount of esterase: varying amounts of esterase
Text: as §2

[4] = Elimination of inhaled 14C-labeled NAC from the lungs in animal studies; format: in vivo; details: inhaled or intranasal, administered by inhalation, animal studies (unpublished observation)
[5] = Stability of capped and uncapped compounds tested with DTNB; format: physicochemical; details: 4 days at room temperature; tested before and after incubation with esterase
Text: This assay was designed to determine whether prodrug caps added on to our dithiol mucolytic compounds can be cleaved from the molecule. If so, the outcome would be an “active” compound that is able to reduce the S—S bond in DTNB. When cleaved the resulting compound, NTB (2-nitro-5-thiobenzoate), is a colored product that can be measured spectrophotometrically at an absorbance of 412 nm (Abs412). Using the molar extinction coefficient of NTB and measured maximum Abs412, the molar amount of DTNB that reacted with our mucolytic agents can be calculated. Dithiol mucolytic compounds react at a 2:1 stoichiometric ratio with DTNB (i.e. 2 molecules of NTB are produced for every one molecule of a dithiol compound that is oxidized). Dithiol prodrugs were mixed at a final concentration of 22.5 μM with excess DTNB (100 μM final) in 1 mL 50 mM Tris-HCl buffer (pH 7.5) and maximum Abs412 was measured. In the absence of a purified hydrolytic enzyme (e.g. porcine liver esterase; Sigma), the amount of DTNB cleavage observed is an indicator for stability of the cap on the prodrug compound (i.e. if the prodrug remains intact in solution the Abs412=0). […]

Muc5B [6] = biological target: T1, Muc5B; assay: Western blot analysis of HBE mucus, Muc5B; format: cell-based; details: single treatment, 10 mM
Text: as §1

Muc5AC = biological target: T2, Muc5AC (Homo sapiens, UniProt P98088); assay: Western blot analysis of HBE mucus, Muc5AC; format: cell-based; details: single treatment, 10 mM
T2 construct: endogenous in cells; host or cells: primary human bronchial epithelial (HBE) cultures
Text: as §1

Molecule: S-4-(2-(bis((2R,3R,4R,5R)-2,3,4,5,6-pentahydroxyhexyl)amino)ethoxy)-2-(mercaptomethyl)benzyl ethanethioate hydrochloride and S-5-(2-(bis((2R,3R,4R,5R)-2,3,4,5,6-pentahydroxyhexyl)amino)ethoxy)-2-(mercaptomethyl)benzyl ethanethioate hydrochloride [70a/b]
reduction of MUC5B in human mucus samples (Muc5B [1]): reduce MUC5B

Molecule: NCCCC[C@H](N)C(=O)SCc1ccccc1CSC(=O)[C@@H](N)CCCCN [Compound 35, (2S,2′S)—S,S′-(1,2-phenylenebis(methylene)) bis(2,6-diaminohexanethioate)HCl salt]
activation by aminopeptidase in DTNB assay (human aminopeptidase): does not completely activate the compound

Molecule: CC(=O)N[C@@H](CS)C(=O)O [NAC, N-acetyl cysteine]
half-life [4]: ~20 min

Molecule: CC(=O)SCc1cc(OCCNC(=O)[C@@H](N)CCCCN)c(OCCNC(=O)[C@@H](N)CCCCN)cc1CSC(C)=O [Compound 11, S,S′-((4,5-bis(2-((S)-2,6-diaminohexanamido)ethoxy)-1,2-phenylene)bis(methylene)) diethanethioate hydrochloride]
reducing activity in DTNB assay without enzyme [3]: remained inactive
activation by esterase in DTNB assay (esterase; low and high concentration of esterase, approximately 15 min incubation): activated compound 11 to a similar level as compound 41

Molecule: CC(=O)SCc1ccccc1CSC(C)=O [Compound 13, S,S′-(1,2-phenylenebis(methylene)) diethanethioate]
amount of esterase giving full activation (esterase; DTNB assay): ≥ 0.015 units
activation by esterase in DTNB assay (esterase; high concentration of esterase): fully activated immediately
activation by esterase in DTNB assay (esterase; low concentration of esterase, 15 min incubation): near fully activated
dependence of activation on amount of esterase (esterase): Increasing amounts of esterase correlated with increasing activation

Now from value to molecule, other results behind:

metabolism and oxidation on the apical surface of HBE cultures [2]: substantially metabolized and oxidized
reducing activity in DTNB assay without enzyme [3]: does not reduce the disulfide bonds
reduction of MUC5B in human mucus samples (Muc5B [1]): reduce MUC5B
Molecule: CC(=O)SCc1ccc(OCCN(C[C@@H](O)[C@@H](O)[C@H](O)[C@H](O)CO)C[C@@H](O)[C@@H](O)[C@H](O)[C@H](O)CO)cc1CSC(C)=O [Compound 68, S,S′-((4-(2-(bis((2R,3R,4R,5R)-2,3,4,5,6-pentahydroxyhexyl)amino)ethoxy)-1,2-phenylene)bis(methylene)) diethanethioate hydrochloride]
retention on the apical cell surface of HBE cultures [2]: substantially maintained on the apical cell surface
dependence of activation on amount of esterase (esterase): concentration dependent increase in reaction rates

stability against oxidation tested with DTNB [5]: prevents some but not all oxidation
reduction of Muc5B on the apical surface of HBE cultures (Muc5B [6]): reduced
reduction of Muc5AC on the apical surface of HBE cultures (Muc5AC): reduced
Molecule: CC(=O)SCc1ccc(OCCN(C[C@H](O)[C@@H](O)[C@H](O)[C@H](O)CO)C[C@H](O)[C@@H](O)[C@H](O)[C@H](O)CO)cc1CSC(C)=O [Compound 23, S,S′-((4-(2-(bis((2S,3R,4R,5R)-2,3,4,5,6-pentahydroxyhexyl)amino)ethoxy)-1,2-phenylene)bis(methylene)) diethanethioate]
dependence of activation on amount of esterase (esterase): Increasing amounts of esterase increased activation

time to fully reduce all available disulfides ([3]; no enzyme): < 10 s
reduction of MUC5B in human mucus samples (Muc5B [1]): reduce MUC5B
Molecule: Cl.OC[C@@H](O)[C@@H](O)[C@H](O)[C@H](O)CN(CCOc1ccc(CS)c(CS)c1)C[C@@H](O)[C@@H](O)[C@H](O)[C@H](O)CO [Compound 76, (2R,2′R,3R,3′R,4R,4′R,5R,5′R)-6,6′-((2-(3,4-bis(mercaptomethyl)phenoxy)ethyl)azanediyl)bis(hexane-1,2,3,4,5-pentaol) hydrochloride]
